Assay results as given in publication PMC7139703, “Thiopurine Derivative-Induced Fpg/Nei DNA Glycosylase Inhibition: Structural, Dynamic and Functional Insights” (International Journal of Molecular Sciences, 2020).
Like-named read-outs stand apart in the source and are kept apart here.

Key:
hNeil1 [1] = biological target: T1, hNeil1 (Homo sapiens, UniProt Q96FI4); test: hNeil1 DNA glycosylase/AP lyase activity assay on DHU:G 24-mer duplex; type: biochemical; design: Overproduction was performed as described above for full length hNeil1; 6His (C); made in house; host or cells: E. coli Rosetta2 (DE3); details: for inhibition of hNeil1 by homogeneous disulfide forms: Figure 6d
Experimental: (§1) Figure 4 Comparative analysis of the effect of 2TX and TXn on Fpg/Nei DNA glycosylases. Enzyme activities were measured as described in the Figure 1 legend using […] of a 5′-[^32P]-24-mer DNA duplex containing either an 8-oxoG opposite C for LlFpg or a […] (DHU) opposite G for hNeil1 and mvNei1. The DNA probe was incubated with the indicated protein concentration and 0.2 mM TXn compounds in the presence or absence of 1 mM dithiothreitol (DTT) and TCEP (a representative experiment is illustrated by the upper histograms). The DNA probe for EMSA was 0.1 nM of 5′-[^32P]-24-mer DNA duplex containing THF with LlFpg and mvNei1 (bottom panels: gel autoradiography) with the indicated conditions and as described in ‘Materials and Methods’.
(§2) Fpg, hNeil1 and mvNei1 are bifunctional DNA glycosylases associated with concerted DNA glycosylase activity (cleavage of the N-glycosidic bond between the base lesion and the C1′ of the deoxyribose) and AP lyase activity that comprises the successive cleavage of the phosphodiester bonds at the 3′ and 5′ of the resulting abasic (AP) site, respectively (β, δ-elimination). Thus, AP sites that result from the excision of the damaged base are quantitatively converted into one nucleoside gap by these enzymes. The DNA glycosylase/AP lyase activity of each enzyme was measured by incubating 20 nM of 24-mer DNA duplexes ([OG:C] and [DHU:G] for Fpg and hNeil1/mvNei1, respectively) 5′-labeling on the damaged strand (see above) with 2 nM of Fpg, or mvNei1 for 15 min or, with 20 nM of hNeil1 for 30 min at 37 °C in 10 mM Tris-HCl, pH 7.6, 150 mM NaCl, 1 mM EDTA, 0.1 mg/mL BSA and 8% DMSO. The reaction was stopped by the addition of 1 volume of formamide loading buffer (96% formamide, 20 mM Tris/HCl pH 8.0 and 2 mM Na2EDTA), heated at 80 °C for 2 min and then analyzed by 20% Urea-PAGE, as previously described. […] Under these conditions, only 50% of the substrate is converted to the cleavage product (limiting enzyme concentration conditions). For an initial evaluation of the inhibitory effect, 40 µM of 2TX/TXn was used. The thio-compound was added to the reaction mixture before the final addition of the enzyme (competition condition). For the best identified inhibitors, a dose-response curve was generated and IC50^A determined (Figure 1 and Table 1).
Target sequence in this assay (Q96FI4 whole entry): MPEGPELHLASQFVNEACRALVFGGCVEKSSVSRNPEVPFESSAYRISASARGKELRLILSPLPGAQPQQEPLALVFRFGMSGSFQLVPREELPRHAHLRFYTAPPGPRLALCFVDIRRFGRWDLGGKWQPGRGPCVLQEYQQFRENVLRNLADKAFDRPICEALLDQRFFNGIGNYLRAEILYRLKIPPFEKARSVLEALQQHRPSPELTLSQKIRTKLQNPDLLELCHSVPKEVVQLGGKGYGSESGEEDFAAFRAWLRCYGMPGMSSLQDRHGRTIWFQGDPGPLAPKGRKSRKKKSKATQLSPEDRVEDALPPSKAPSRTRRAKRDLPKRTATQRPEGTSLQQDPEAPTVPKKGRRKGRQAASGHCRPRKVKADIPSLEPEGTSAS

LlFpg/DNA complex C1 = biological target: T2, LlFpg/DNA complex C1 (Lactococcus lactis subsp. cremoris, UniProt P42371); test: EMSA, Fpg DNA binding to 14-mer [THF:C] duplex, complex C1 (lesion recognition complex, Fpg/DNA 1/1); details: homogeneous reduced or disulfide form in 50 mM sodium phosphate; 14-mer [THF:C]; read-out: IC50^B (Fpg DNA binding), homogeneous redox forms
T2 construct: made in house; host or cells: E. coli BH540 (fpg defective)
Text: (§3) To complement this study, we examined the effect of TXn on the binding of Fpg to a short DNA duplex containing a tetrahydrofuran (THF), a non-cleavable AP site analog. The enzyme specifically recognizes THF and forms a stable abortive complex with DNA [18, 34, 35, 36]. […] A representative titration experiment (with and without TCEP) of the 14-mer [THF:C] Fpg formed two stable complexes with this short DNA probe that were easily observed by EMSA: a high-affinity complex C1 corresponding to the lesion recognition complex (LRC), with nanomolar affinity, and a complex C2 only observed at higher Fpg concentrations. C2 results in C1 titration by a second Fpg molecule. This finding illustrates that the crystal structure of Fpg bound to 8-oxoG-carbanucleotide-containing DNA [38] (Figure S5). The stability of each preformed complex was then examined by EMSA in the presence of 2TX or TXn. […] The enzyme inactivation mediated by 2TX through ZnF oxidation that directly affects the DNA binding properties of the enzyme is also in agreement with this last observation.
Figure 2 The effect of 2TX and TXn on Fpg DNA binding to abasic site-containing DNA. A 14-mer DNA duplex containing a tetrahydrofurane (THF) site as an abasic site analog was incubated with a limiting Fpg concentration (0.25 nM) with and without increasing concentrations of TXn. Incubation mixtures were then analyzed by electrophoretic mobility shift assay (EMSA), as described in the ‘Materials and Methods’. (a) Titration experiments with (+) and without (-) 2 mM tris(2-carboxyethyl)phosphine hydrochloride (TCEP) C1 and C2 are for the [1/1] and [2/1] Fpg/DNA complexes, respectively (see detailed in the text). (b) Fpg DNA binding concentration-dependence for 2TX and the more efficient TXn inhibitors. A representative EMSA autoradiography with 0.25 nM of Fpg alone (lane no) and 0.5, 2.5, 5, 10, 20, 40, 50, 250, 1000 µM is shown in the upper panel. IC50app^B corresponds to the TXn amount needed to halve the C1 complex formation and was extracted from the dose-response curves (lower panel; Table 1).
(§4) The DNA binding activity was measured using EMSA [37]. Briefly, 0.1 nM of the 5′-labeled 14-mer [THF:C] (see above) was incubated with the enzyme at 4 °C for 30 min in 25 mM HEPES/NaOH (pH 7.5), 150 mM NaCl, 5% glycerol, 0.1 mg/mL BSA and 8% DMSO. The incubation mixture was then loaded onto a native 10% polyacrylamide gel (Acryl/Bis 19/1) and electrophoresed at 25 V/cm for 90 min at 4 °C. After electrophoresis, the gels were dried and exposed overnight for autoradiography using a Typhoon imager and quantified with ImageQuant software. To evaluate the inhibitor effect of 2TX/TXn on the DNA binding activity of each Fpg/Nei enzyme, we first determined the experimental conditions required to bind 50% of the DNA probes without an inhibitor in the presence of 8% DMSO (limiting enzyme concentration). Under these conditions, we obtained the half-maximal DNA binding 0.25, 7 and 5 nM of Fpg, hNeil1 and mvNei1. We used this limited enzyme concentrations to evaluate the inhibitor effect of 2TX/TXn on the enzyme DNA binding activity. This effect was determined by the addition of the thio-compound in the pre-equilibrium mixture of the enzyme and DNA probe (30 min) and incubated for an additional 30 min at 4 °C. For the best inhibitors of Fpg, a dose-response curve was established from at least three independent experiments and the IC50 was determined (IC50^B, Table 1).

LlFpg = biological target: T3, LlFpg (Lactococcus lactis subsp. cremoris, UniProt P42371); test: LlFpg 8-oxoG-DNA glycosylase/AP lyase activity assay (Urea-PAGE radioassay); type: biochemical; details: for inhibition of Fpg catalytic activity by reduced forms: 400 µM, homogeneous reduced form
T3 construct: made in house; host or cells: E. coli BH540 (fpg defective)
Experimental: Figure 1 Effect of 2-thioxanthine (2TX)-derivatives on Fpg activity. A total of 20 nM of 5′-[^32P]-8-oxoG-containing 24-bp DNA duplex (labeled on the damaged strand) was incubated with 2 nM of LlFpg alone (dimethyl sulfoxide (DMSO) control) or with the indicated 2TX and 2TX-derivatives (TXn) concentrations, as described in the “Materials and Methods” section. (a) Screening of TXn for Fpg inhibition. Averages and standard deviations were obtained from at least three independent experiments. Mono- and di-thiolated compounds are highlighted in red and blue, respectively. (b) Dose-response curves for best inhibitors. Each data point represents the mean value obtained from at least three independent measurements.
as §2

mvNei1 [2] = biological target: T4, mvNei1 (Acanthamoeba polyphaga mimivirus, UniProt Q5UQ00); test: mvNei1 DNA glycosylase/AP lyase activity assay on DHU:G 24-mer duplex; type: biochemical; details: for inhibition of mvNei1 by homogeneous disulfide forms: Figure 6d
T4 construct: 6His (C); made in house; host or cells: E. coli Rosetta2 (DE3)
T4 sequence (Q5UQ00 whole entry): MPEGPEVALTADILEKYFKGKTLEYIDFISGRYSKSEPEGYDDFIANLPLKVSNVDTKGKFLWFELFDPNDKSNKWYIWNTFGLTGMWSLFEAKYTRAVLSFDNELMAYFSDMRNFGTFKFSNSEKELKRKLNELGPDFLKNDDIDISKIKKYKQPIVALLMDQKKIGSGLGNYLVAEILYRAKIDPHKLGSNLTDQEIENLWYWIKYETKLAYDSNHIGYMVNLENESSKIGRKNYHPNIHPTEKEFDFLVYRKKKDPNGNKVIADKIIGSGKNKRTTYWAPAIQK
Experimental: as §1, §2

LlFpg/DNA complex C2 = biological target: T5, LlFpg/DNA complex C2 (Lactococcus lactis subsp. cremoris, UniProt P42371); test: EMSA, Fpg DNA binding to 14-mer [THF:C] duplex, non-specific complex C2 (Fpg/DNA 2/1); details: 2 mM TCEP, 6.7-fold molar excess over compound; Figure 3
T5 construct: made in house; host or cells: E. coli BH540 (fpg defective)
T5 sequence (P42371 2-273 limits assumed): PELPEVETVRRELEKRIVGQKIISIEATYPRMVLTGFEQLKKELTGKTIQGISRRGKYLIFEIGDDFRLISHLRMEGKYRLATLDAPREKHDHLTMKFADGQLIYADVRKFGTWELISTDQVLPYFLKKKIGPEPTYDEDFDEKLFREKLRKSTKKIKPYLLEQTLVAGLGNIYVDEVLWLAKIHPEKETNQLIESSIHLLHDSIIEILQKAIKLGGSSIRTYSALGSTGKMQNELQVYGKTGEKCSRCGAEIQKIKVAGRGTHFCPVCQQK
Text: as §3
The inhibitor concentrations that induced the loss of the half-maximal binding (IC50app^B) were determined from these curves and are reported in Table 1. IC50app^B compared well with IC50app^A. As observed above for the enzyme activity, strong reducers, such as TCEP, abolished the negative effects of 2TX and TXn on Fpg/DNA complex stability and formation. These findings again indicate that inhibition by thio-compounds essentially relies on the oxidation of the Fpg ZnF (for an example, see experiment with TX19, Figure S4). […] This troubling and unexpected observation led us to evaluate this effect with the TXn small library compounds. To prevent a side effect due to a possible partial reduction by TCEP, we performed EMSA in the presence of a 6.7-fold molar excess of TCEP with respect to 2TX and TXn after complex formation (Figure 3).
Figure 3 Impact of TXn on the non-specific Fpg/DNA complex C2 stability in highly reducing conditions. EMSA was performed as described in the ‘Material & Methods’, except TCEP was added at a 2 mM final concentration in each binding assay. (a) Representative experiment at 0.3 mM 2TX and more efficient TXn; (b) Dose-response with the best TXn. Upper panel: Representative EMSA experiment with TX10. Lower panel: Dose-response curves with the indicated TXn.
as §4, with “1). […]” for “1).”
Rieux et al. Thiopurine derivative-induced Fpg/Nei DNA glycosylase inhibition:
structural, dynamic and functional insights
Figure S6. […]

mvNei1 [3] = biological target: T4, mvNei1; test: EMSA, mvNei1 DNA binding to THF-containing DNA duplex; details: Figure 4
Experimental: as §1, with “The DNA probe for EMSA was 0.1 nM of 5′-[^32P]-24-mer DNA duplex containing THF with LlFpg and mvNei1 (bottom panels: gel autoradiography) with the indicated conditions and as described in ‘Materials and Methods’.” left out
The DNA binding activity was measured using EMSA [37]. […] After electrophoresis, the gels were dried and exposed overnight for autoradiography using a Typhoon imager and quantified with ImageQuant software. To evaluate the inhibitor effect of 2TX/TXn on the DNA binding activity of each Fpg/Nei enzyme, we first determined the experimental conditions required to bind 50% of the DNA probes without an inhibitor in the presence of 8% DMSO (limiting enzyme concentration). […] This effect was determined by the addition of the thio-compound in the pre-equilibrium mixture of the enzyme and DNA probe (30 min) and incubated for an additional 30 min at 4 °C. For the best inhibitors of Fpg, a dose-response curve was established from at least three independent experiments and the IC50 was determined (IC50^B, Table 1).

hNeil1 [4] = biological target: T1, hNeil1; test: EMSA, hNeil1 DNA binding to THF-containing DNA duplex; details: Figure 4
Target sequence in this assay (Q96FI4 2-290 limits assumed): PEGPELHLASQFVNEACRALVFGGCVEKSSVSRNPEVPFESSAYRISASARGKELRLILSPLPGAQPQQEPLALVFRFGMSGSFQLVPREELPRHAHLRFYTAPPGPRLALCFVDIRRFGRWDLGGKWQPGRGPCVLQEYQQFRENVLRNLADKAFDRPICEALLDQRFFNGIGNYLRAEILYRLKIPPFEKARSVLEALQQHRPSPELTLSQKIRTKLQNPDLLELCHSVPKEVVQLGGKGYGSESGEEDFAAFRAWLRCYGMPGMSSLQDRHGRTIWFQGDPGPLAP

[5] = homogeneous reduced or disulfide form dissolved in 50 mM sodium phosphate, no DMSO stock, read-out: IC50^A (Fpg catalysis), homogeneous redox forms
[6] = 1 mM TCEP (DTT to a lesser extent), Figure 4

O=c1[nH]c(SSc2nc3[nH]cnc3c(=O)[nH]2)nc2[nH]cnc12 [Compound 2TXOx]
inhibition of hNeil1 by homogeneous disulfide forms (hNeil1 [1]): neither 2TXOx nor TX14Ox inhibited
IC50 (LlFpg/DNA complex C1): 34 ± 2 µM
IC50 (LlFpg; [5]): 5.5 µM
inhibition of mvNei1 by homogeneous disulfide forms (mvNei1 [2]): neither 2TXOx nor TX14Ox inhibited

O=c1[nH]c(=S)[nH]c2[nH]cnc12 [Compound 2TXRed, reference compound]
IC50 (LlFpg/DNA complex C1): > 1000 µM
inhibition of Fpg catalytic activity by reduced forms (LlFpg): did not inhibit the enzyme
IC50 (LlFpg; [5]): > 1000 µM

Cc1nc(S)c2[nH]cnc2n1 [TX4]
effect on Fpg 8-oxoG-DNA glycosylase/AP lyase activity (screening) (LlFpg; 40 µM compound, Figure 1a): drastically decreased the inhibitory effect

COc1nc(C(F)(F)F)nc2[nH]cnc12 [TX10]
destabilization of complex C2 in highly reducing conditions (LlFpg/DNA complex C2): among the best C2 destabilizers

CNc1nc(C(F)(F)F)nc2[nH]cnc12 [TX11]
destabilization of complex C2 in highly reducing conditions (LlFpg/DNA complex C2): among the best C2 destabilizers

O=c1[nH]c2nc(SSc3nc4[nH]c(=O)[nH]c4c(=O)[nH]3)[nH]c(=O)c2[nH]1 [TX14Ox]
inhibition of hNeil1 by homogeneous disulfide forms (hNeil1 [1]): neither 2TXOx nor TX14Ox inhibited
IC50 (LlFpg/DNA complex C1): 26 ± 1 µM
IC50 (LlFpg; [5]): 2.7 µM
inhibition of mvNei1 by homogeneous disulfide forms (mvNei1 [2]): neither 2TXOx nor TX14Ox inhibited

O=c1[nH]c2[nH]c(=S)[nH]c(=O)c2[nH]1 [TX14Red]
IC50 (LlFpg/DNA complex C1): > 1000 µM
inhibition of Fpg catalytic activity by reduced forms (LlFpg): did not inhibit the enzyme
IC50 (LlFpg; [5]): > 1000 µM

O=c1[nH]c2[nH]c(=S)[nH]c(=S)c2[nH]1 [TX16]
effect on hNeil1 catalytic activity (hNeil1 [1]; 0.2 mM compound, Figure 4): apparent inhibitory effects
inhibition of hNeil1 DNA binding and catalytic activities in the presence of TCEP (hNeil1 [1]; [6]): suppressed
IC50 (hNeil1 [1]; catalytic activity at 37 °C, compound stock in DMSO, DHU:G 24-mer, read-out: IC50app^A (Fpg/Nei enzyme catalysis) hNEIL1): 21 ± 1 µM
effect on mvNei1 DNA binding activity (mvNei1 [3]): apparent inhibitory effects
IC50 (LlFpg; catalytic activity at 37 °C, compound stock (redox mixture) in DMSO, 20 nM 8-oxoG:C 24-mer, 2 nM LlFpg, read-out: IC50app^A (Fpg/Nei enzyme catalysis) LlFpg): 41 ± 7 µM
effect on hNeil1 DNA binding activity (hNeil1 [4]): apparent inhibitory effects
effect on mvNei1 catalytic activity (mvNei1 [2]; 0.2 mM compound, Figure 4): apparent inhibitory effects
inhibition of mvNei1 DNA binding and catalytic activities in the presence of TCEP (mvNei1 [2]; [6]): suppressed
IC50 (mvNei1 [2]; catalytic activity at 37 °C, compound stock in DMSO, DHU:G 24-mer, read-out: IC50app^A (Fpg/Nei enzyme catalysis) mvNEI1): 14 ± 1 µM
